Earlier results as cited in US10481160B2, “Combined anticancer drug sensitivity-determining marker” (KEIO UNIVERSITY, priority 2012, dated 2019).

System: advanced/recurrent colorectal cancer

| SMILES | anti-tumor effect on colorectal cancer |
| --- | --- |
| O=C1[O][Pt]2([NH][C@@H]3CCCC[C@H]3[NH]2)[O]C1=O [L-OHP, Oxaliplatin] | exhibits anti-tumor effect |
| [NH2][Pt]([NH2])([Cl])[Cl] [CDDP, cisplatin] | ineffective |
| N.N.O=C([O-])C1(C(=O)[O-])CCC1.[Pt+2] [CBDCA, carboplatin] | ineffective |
